The text below walks through data of the NIST ThermoML archive (doi:10.1016/j.fluid.2019.01.011).

Numbers after ± are expanded uncertainties.

The conditions of this series: Crystal; DSC.

As for `[Cl-].[Cs+]` [cesium chloride], the Triple point temperature worked out at 918 ± 10 K.
In the case of `[Cl-].[Cl-].[Zn+2]` [zinc chloride], the Triple point temperature stood at 587 ± 10 K.
